Source: patent US20250002954A1, “Novel Compound, Use Thereof, and Method for Producing Same, and Compound-Containing Composition, Method for Producing 4-Trehalosamine, and Microorganism” (Microbial Chemistry Research Foundation, priority 2021, published 2025)

Tests used:
[1] = test system: baker's yeast (Saccharomyces cerevisiae F-7); assay: Evaluation of baker's yeast protective activity in freeze-dried condition; format: cell-based; conditions: for Numbers of live bacterial cells (relative numbers): baker's yeast freeze-dried with 6% aqueous solution (final concentration 3%), test sample 3 (FD) = 1
Procedure: Using test samples 1 to 8 containing baker's yeast prepared in the following manner, microorganism-protective activity with various kinds of sugar in a freeze-dried condition was evaluated.
Frozen stock of baker's yeast (Saccharomyces cerevisiae F-7, owned by the Microbial Chemistry Research Foundation) was inoculated in 10 mL of YPD culture fluid (1% yeast extract, 2% polypeptone, 2% glucose) and cultured at 27° C. for 2 days while shaking it at 220 rpm. After culture, it was centrifuged at 1,000×g for 5 minutes, washed once with 10 mL of water, and then suspended in 10 mL of water, thus obtaining yeast suspension. 50 μL of water was added to and mixed with 50 μL of this yeast suspension and the mixture was left to stand at 4° C. for 12 hours, preparing control (NF).
After yeast suspension was prepared in a similar manner to test sample 1, 50 µL of 6% aqueous solution of trehalose was added to and mixed with 50 μL of the yeast suspension, and the mixture was frozen at −80° C. for 1 hour. It was then freeze-dried for 12 hours with a freeze dryer (FLEXI-DRY, manufactured by FTS systems INC., Warminster) connected to a vacuum pump (P65D, manufactured by PHIL Sato Vac INC.), preparing freeze-dried product (TRH) of yeast with TRH.
Freeze-dried product (4TA) of yeast with 4TA was obtained in a similar manner to the preparation method of test sample 4 except that trehalose was changed to 4-trehalosamine (4TA) in the preparation method of test sample 4.
Freeze-dried product (MLT) of yeast with MLT was obtained in a similar manner to the preparation method of test sample 4 except that trehalose was changed to maltose (MLT) in the preparation method of test sample 4.
Freeze-dried product (SCR) of yeast with SCR was obtained in a similar manner to the preparation method of test sample 4 except that trehalose was changed to sucrose (SCR) in the preparation method of test sample 4.
Freeze-dried product (GOL) of yeast with GOL was obtained in a similar manner to the preparation method of test sample 4 except that trehalose was changed to glycerol (GOL) in the preparation method of test sample 4.
For test samples 1 and 2, serial suspensions were made by diluting them to 1/10 with saline. 100 μL of water was added to each of the freeze-dried products of test samples 3 to 8 and diluted to 1/10 with saline to make their serial suspensions. 60 μL of water was added to 30 μL of each diluted solution.
In a 6-well microplate, 2% Agar-YPD was prepared at 3 mL/well, and 90 μL of each diluted solution was inoculated on the 2% Agar-YPD and cultured at 30° C. for two days.
Wells in which the number of colonies was measurable were selected and the numbers (relative numbers) of live bacterial cells per well on test samples 1, 2, and 4 to 8 when the number of live bacterial cells per well on test sample 3 (FD) was “1” were calculated in consideration of the dilution concentrations of those test samples.

[2] = biological target: T1, bovine alkaline phosphatase (CIP) (Bos taurus, UniProt P19111); assay: Evaluation of CIP-protective activity under freeze-dried condition; format: biochemical; conditions: for CIP activity after freeze-drying: freeze-dried with 3% additive
T1 construct: purchased New England Biolabs
T1 sequence (P19111 20-506): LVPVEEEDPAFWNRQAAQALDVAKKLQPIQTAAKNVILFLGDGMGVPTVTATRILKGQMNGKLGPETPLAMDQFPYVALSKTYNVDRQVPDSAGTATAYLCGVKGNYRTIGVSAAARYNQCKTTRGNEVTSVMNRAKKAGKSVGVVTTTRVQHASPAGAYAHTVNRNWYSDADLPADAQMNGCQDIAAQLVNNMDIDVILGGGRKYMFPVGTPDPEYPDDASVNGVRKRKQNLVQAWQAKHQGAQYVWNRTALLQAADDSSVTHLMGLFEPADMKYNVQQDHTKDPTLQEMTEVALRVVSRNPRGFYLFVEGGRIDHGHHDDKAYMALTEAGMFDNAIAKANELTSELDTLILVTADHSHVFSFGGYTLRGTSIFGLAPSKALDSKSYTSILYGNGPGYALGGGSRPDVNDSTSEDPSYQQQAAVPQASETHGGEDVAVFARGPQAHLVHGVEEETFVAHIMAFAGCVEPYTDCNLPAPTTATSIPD
Procedure: Test samples 1 to 12 containing bovine alkaline phosphatase (CIP) were prepared as follows and protein-protective activity of various kinds of added sugar under freeze-dried condition was evaluated.
After bovine alkaline phosphatase (10 units/μL, manufactured by New England Biolabs) was diluted to 1/40 with TBS (manufactured by Takara Bio Inc.), it was subjected to dialysis for 2 hours at 4° C. within TBS of an amount 1,000 times the diluted enzyme solution to remove glycerol. 40 μL of TBS containing 2% trehalose (TRH) was added to and mixed with 40 μL of the enzyme solution after dialysis and the mixture was frozen at −80° C. for 10 minutes. It was then freeze-dried for 20 hours with a freeze dryer (FLEXI-DRY, manufactured by FTS systems INC., Warminster) connected to a vacuum pump (P65D, manufactured by PHIL Sato Vac INC.), preparing freeze-dried product of enzyme with 1% TRH.
Freeze-dried product of enzyme with 3% TRH was prepared in a similar manner to the preparation method of test sample 4 except that the final concentration of trehalose was changed to 3% in the preparation method of test sample 4. […]
Freeze-dried product of enzyme with 3% 4TA was prepared in a similar manner to the preparation method of test sample 5 except that trehalose was changed to 4-trehalosamine (4TA) in the preparation method of test sample 5. […]
Freeze-dried product of enzyme with 3% MLT was prepared in a similar manner to the preparation method of test sample 5 except that trehalose was changed to maltose (MLT) in the preparation method of test sample 5. […]
Freeze-dried product of enzyme with 3% SCR was prepared in a similar manner to the preparation method of test sample 5 except that trehalose was changed to sucrose (SCR) in the preparation method of test sample 5.
Freeze-dried product of enzyme with 3% GOL was prepared in a similar manner to the preparation method of test sample 5 except that trehalose was changed to glycerol (GOL) in the preparation method of test sample 5.
80 μL of water was added to each of the freeze-dried products of test samples 3 to 12 and the mixture was diluted to 1/100 with TBS. Test samples 1 and 2 were diluted to 1/100 with TBS. 10 μL of each of the diluted test samples 1 to 12 and 20 μL of 0.1 M p-nitrophenylphosphate (pNPP)-TBS solution were added to 70 μL of TBS, and enzyme reaction was left to take place at 37° C. for 1 hour. After the reaction, absorbance at 420 nm was measured with a microplate reader (Cytation5, manufactured by Bio Tek Instruments) and CIP activity was measured by the amount of p-nitrophenol as enzyme reaction product (n=3, mean±S.D.).

SMILES | Numbers of live bacterial cells (relative numbers) [1] | CIP activity after freeze-drying [2] | protective effect on microorganisms, comparison ([1]; baker's yeast, freeze-dried) | CIP protection effect compared to other sugars ([2]; freeze-dried)
OC[C@H]1O[C@H](O[C@H]2[C@H](O)[C@@H](O)C(O)O[C@@H]2CO)[C@H](O)[C@@H](O)[C@@H]1O (mixture of isomers) [maltose] | 10 | good activity was maintained |  | 
N[C@H]1[C@H](O)[C@@H](O)[C@@H](O[C@H]2O[C@H](CO)[C@@H](O)[C@H](O)[C@H]2O)O[C@@H]1CO [4-trehalosamine] | 100 | good activity was maintained | stronger than when maltose or sucrose was added | high compared to the other sugars
OCC(O)CO [GOL, glycerol] | 0 | enzyme activity significantly dropped |  | 
OC[C@H]1O[C@@](CO)(O[C@H]2O[C@H](CO)[C@@H](O)[C@H](O)[C@H]2O)[C@@H](O)[C@@H]1O [sucrose] | 10 | good activity was maintained |  | 
OC[C@H]1O[C@H](O[C@H]2O[C@H](CO)[C@@H](O)[C@H](O)[C@H]2O)[C@H](O)[C@@H](O)[C@@H]1O [trehalose, reference compound] | 100 | good activity was maintained |  | 
